Here are results for ten molecules from US7642362B2, “Compounds as semaphorin inhibitors” (Dainippon Sumitomo Pharma Co., Ltd., priority 2002, dated 2010).

The test system of data set [1] is semaphorin. Briefly: Semaphorin inhibitory activity (earlier finding of the inventors).
In data set [2] the test system is nerve regeneration. Kind of data set: Nerve regeneration in vivo (earlier finding of the inventors).
Data set [3] has as its target T1, mouse semaphorin 3A (Sema3A) (Mus musculus, UniProt O08665).
T1 sequence (O08665 21-772): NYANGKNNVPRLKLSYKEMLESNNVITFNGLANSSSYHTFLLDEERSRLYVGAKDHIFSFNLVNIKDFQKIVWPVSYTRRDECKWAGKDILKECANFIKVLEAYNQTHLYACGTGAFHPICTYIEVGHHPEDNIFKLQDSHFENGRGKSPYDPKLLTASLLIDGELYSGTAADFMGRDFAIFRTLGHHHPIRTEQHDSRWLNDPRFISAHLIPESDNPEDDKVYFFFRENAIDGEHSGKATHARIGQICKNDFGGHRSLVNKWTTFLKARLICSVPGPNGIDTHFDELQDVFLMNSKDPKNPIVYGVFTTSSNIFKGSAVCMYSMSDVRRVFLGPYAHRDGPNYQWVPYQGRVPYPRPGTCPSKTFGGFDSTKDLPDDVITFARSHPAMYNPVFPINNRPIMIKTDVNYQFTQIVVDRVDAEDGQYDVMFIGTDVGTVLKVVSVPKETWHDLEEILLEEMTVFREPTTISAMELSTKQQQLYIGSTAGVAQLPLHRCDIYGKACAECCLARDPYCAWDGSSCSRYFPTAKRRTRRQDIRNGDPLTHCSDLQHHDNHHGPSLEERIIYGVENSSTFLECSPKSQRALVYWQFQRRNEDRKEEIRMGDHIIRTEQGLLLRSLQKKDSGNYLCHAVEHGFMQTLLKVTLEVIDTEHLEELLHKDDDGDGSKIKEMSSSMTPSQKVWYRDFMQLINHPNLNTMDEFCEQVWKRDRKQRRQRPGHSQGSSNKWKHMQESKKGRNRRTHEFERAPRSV
Kind of data set: Suppressing action on the growth cone collapse activity of Sema3A in chick dorsal root ganglion culture. The data set is classed as cell-based. Conditions: E7 chick embryo dorsal root ganglions; compound added 1 hour before 3 units/ml mouse Sema3A; growth cone collapse rate after another 1 hour. From the text: The growth cone collapse activity of semaphorin described above means an activity to make growth cones disappear. This activity is observed after performing the following steps: cultivating nerve cells (generally tissue explants of ganglions) for a given period of time in vitro until the extended neurites as well as the growth cones at the edge of said neurites can be observed; and then adding thereto a given concentration (e.g. about 3 unit/ml; 1 unit/ml is defined as a semaphorin concentration in which 50% of the growth cones are collapsed) of semaphorin and cultivating for another given period of time (e.g. one hour). In order to get the extended neurites and the growth cones at the edge of said neurites ready for the observation, the nerve cells are generally cultivated for 10 to 20 hours in vitro, which duration can be altered according to a nerve variant and culture conditions. When the growth cone collapse caused by semaphorin is suppressed by, for example, the addition of a compound to this experimental system at an appropriate concentration about one hour prior to the addition of semaphorin, then such compound is regarded as a semaphorin inhibitor, especially as a compound with suppressing action on the growth cone collapse activity of semaphorin.
A 96-well plate (Sumitomo Bakelite Co., Ltd.) pre-coated with polylysine was further coated with laminine (20 μg/ml of laminine, for 1 hour at room temperature). Each well was added with 100 μl of medium (F12 medium containing 10% bovine fetal serum, 20 ng/ml of NGF, 100 units/ml of penicillin and 100 μg/ml of streptomycin) which medium was then inoculated with dorsal root nerve ganglions excised from E7 (Embryonic day 7) chick embryo and cultured for 16 to 20 hours under 5% CO2 at 37° C. Subsequently, the object compounds were added to media at various concentrations and 3 units/ml of mouse semaphorin 3A (Sema3A) was added after cultivating for 1 hour. The cultures were further incubated for another 1 hour. Glutaraldehyde was quickly added therein after said 1 hour to make the final concentration 1%. The cultures were then left for 15 minutes at room temperature so that the tissue sections were fixed, and collapse rates of the growth cones were microscopically determined. IC50 values was defined as a concentration of each compound at which concentration the collapse rate C equals to(A+B)/2, wherein (A) % is the collapse rate of growth cone of the negative control group (neither compounds nor Sema3A was added); (B) % is the collapse rate of growth cone of the positive control group (compounds were not added but Sema3A was added); and (C) % is the collapse rate of growth cone of the test group (each one compound and Sema3A were added).

Data set [4] can be described thus: Solubility of the purified compounds in solvents. Type of data set: physicochemical.

Regarding `CC(=O)c1c(C)c(C(=O)C2COc3cc(O)c(O)c(C(=O)O)c3C2=O)cc2c(=O)c3c(C(=O)O)c(O)c(O)cc3oc12` (centres unmarked) [SPF-3059-1], in data set [1], the Semaphorin inhibitory activity entry was “have semaphorin inhibitory activity”. Besides, the “Promotion of nerve regeneration” value in data set [2] was “promote nerve regeneration in vivo”.

The term IC50 denotes the concentration that inhibits the measured activity by half. Read a low IC50 as higher potency. `CC(=O)c1c(C)c(-c2oc3cc(O)c(O)c(C(=O)O)c3c(=O)c2Cc2c(C)oc3c(c2=O)COc2cc(O)c(O)c(C(=O)O)c2-3)cc2c(=O)c3cc(O)c(O)cc3oc12` [SPF-3059-42] gave an IC50 in data set [3] of 78.1 nM. Besides, in data set [4], the “Solubility in DMSO” value is “soluble”, the Solubility in hexane entry is given as “Insoluble”, the Solubility in methanol result is “soluble” and the Solubility in water result was “Insoluble”.

As to `Cc1cc(=O)c2c(o1)-c1c(c3c(c(O)c1C(=O)O)OC1(C)Cc4oc5cc(O)c(O)c(C(=O)O)c5c(=O)c4C3O1)OC2` (centres unmarked) [SPF-3059-8], half-maximal inhibition in data set [3] (IC50) required 3460 nM. In addition, in data set [4], the “Solubility in DMSO” value is recorded as “soluble”, the Solubility in hexane result was “Insoluble”, the Solubility in methanol entry is given as “soluble” and the Solubility in water result is “Insoluble”.

Turning to `CC(=O)c1c2c(c3ccc4c(=O)c5c(C(=O)O)c(O)c(O)cc5oc4c3c1C)C(=O)C1(CC2)COc2cc(O)c(O)c(C(=O)O)c2C1=O` (centres unmarked) [SPF-3059-38], half-maximal inhibition in data set [3] (IC50) required 19.9 nM. In data set [4], the “Solubility in DMSO” value is “soluble”, the Solubility in hexane result was “Insoluble”, the Solubility in methanol result was “soluble” and the Solubility in water result is “Insoluble”.

As for `CC1=Cc2oc3cc(O)c(O)c(C(=O)O)c3c(=O)c2C(c2c(C)oc3c(c2=O)COc2cc(O)c(O)c(C(=O)O)c2-3)O1` (centres unmarked) [SPF-3059-17], the IC50 in data set [3] is 225 nM. Also, in data set [4], the “Solubility in DMSO” value was “soluble”, the Solubility in hexane entry is “Insoluble”, the Solubility in methanol entry is listed as “soluble” and the Solubility in water entry is “Insoluble”.

Take `CC(=O)c1cc(-c2c(C(C)=O)cc3c(=O)c4c(C(=O)O)c(O)c(O)cc4oc3c2C(C)=O)cc(C(=O)c2c(O)cc(O)c(O)c2C(=O)O)c1O` [SPF-3059-23]: the IC50 in data set [3] was 728 nM. Moreover, in data set [4], the “Solubility in DMSO” value was “soluble”, the Solubility in hexane entry was “Insoluble”, the Solubility in methanol result was “soluble” and the Solubility in water entry is “Insoluble”.

In data set [3], `CC(=O)[C@]12c3c(cc(O)c(O)c3C(=O)O)OC[C@]13Cc1c(oc4cc(O)c(O)c(C(=O)O)c4c1=O)[C@H]2C(C)=C(O)C3=O` (relative stereo) [SPF-3059-16] had an IC50 of 861 nM. Also, in data set [4], the “Solubility in DMSO” value is on record as “soluble”, the Solubility in hexane entry is on record as “Insoluble”, the Solubility in methanol result is given as “soluble” and the Solubility in water result is on record as “Insoluble”.

`CC(=O)C1=C2c3cc(O)c(O)cc3OCC2(C(=O)/C=C(/C)O)Cc2c1oc1cc(O)c(O)c(C(=O)O)c1c2=O` (centres unmarked) [SPF-3059-40] showed an IC50 in data set [3] of 233 nM. Also, in data set [4], the “Solubility in DMSO” value is given as “soluble”, the Solubility in hexane result is recorded as “Insoluble”, the Solubility in methanol result was “soluble” and the Solubility in water result is “Insoluble”.

Consider `CC12Cc3oc4cc(O)c(O)c(C(=O)O)c4c(=O)c3C(O1)C1C(=O)C3=C(OC1(C)O2)c1c(cc(O)c(O)c1C(=O)O)OC3` (centres unmarked) [SPF-3059-19], for which, in data set [3], half-maximal inhibition (IC50) required 838 nM. Further, in data set [4], the “Solubility in DMSO” value is on record as “soluble”, the Solubility in hexane result is listed as “Insoluble”, the Solubility in methanol result was “soluble” and the Solubility in water entry is recorded as “Insoluble”.

Molecule `CC(=O)c1c(C)c(C(=O)c2coc3cc(O)c(O)c(C(=O)O)c3c2=O)cc2c(=O)c3c(O)cc(O)c(O)c3oc12` [SPF-3059-22] had an IC50 in data set [3] of 912 nM. Further, in data set [4], the “Solubility in DMSO” value is recorded as “soluble”, the Solubility in hexane result is listed as “Insoluble”, the Solubility in methanol entry is given as “soluble” and the Solubility in water result was “Insoluble”.
